In ChEMBL document CHEMBL4837249, “Discovery of Potent Antiallergic Agents Based on an o-Aminopyridinyl Alkynyl Scaffold” (J Med Chem, 2021):

What was measured:
RBL-2H3 [1] = experiment: Antiallergic activity against anti-DNP-IgE sensitized rat RBL-2H3 cells assessed as […] of degranulation by measuring beta-hexosaminidase release using P-nitrophenyl-N-acetyl-D-glucosamide as substrate at 1 uM measured after 1 hr by microplate reader relative to control; format: functional
RBL-2H3 [2] = experiment: Antiallergic activity against anti-DNP-IgE sensitized rat RBL-2H3 cells assessed as […] of degranulation by measuring beta-hexosaminidase release using P-nitrophenyl-N-acetyl-D-glucosamide as substrate at 0.04 uM measured after 1 hr by microplate reader relative to control; format: functional
RBL-2H3 [3] = experiment: Antiallergic activity against anti-DNP-IgE sensitized rat RBL-2H3 cells assessed as […] of degranulation by measuring beta-hexosaminidase release using P-nitrophenyl-N-acetyl-D-glucosamide as substrate at 0.2 uM measured after 1 hr by microplate reader relative to control; format: functional
[4] = target: Macrophage colony-stimulating factor 1 receptor (Homo sapiens, UniProt P07333); experiment: Inhibition of human recombinant CSF1R using ATP/Ulight-TK peptide incubated for 15 mins
RBL-2H3 [5] = experiment: Antiallergic activity against anti-DNP-IgE sensitized rat RBL-2H3 cells assessed as […] of degranulation by measuring beta-hexosaminidase release using P-nitrophenyl-N-acetyl-D-glucosamide as substrate measured after 1 hr by microplate reader; format: functional, cell-based; conditions: RBL-2H3, 1 h
[6] = Therapeutic index, ratio of CC50 for rat RBL2H3 cells to IC50 for Antiallergic activity against anti-DNP-IgE sensitized rat RBL-2H3 cells; format: toxicity; conditions: read-out: TI

Chain of Macrophage colony-stimulating factor 1 receptor (P07333 whole entry): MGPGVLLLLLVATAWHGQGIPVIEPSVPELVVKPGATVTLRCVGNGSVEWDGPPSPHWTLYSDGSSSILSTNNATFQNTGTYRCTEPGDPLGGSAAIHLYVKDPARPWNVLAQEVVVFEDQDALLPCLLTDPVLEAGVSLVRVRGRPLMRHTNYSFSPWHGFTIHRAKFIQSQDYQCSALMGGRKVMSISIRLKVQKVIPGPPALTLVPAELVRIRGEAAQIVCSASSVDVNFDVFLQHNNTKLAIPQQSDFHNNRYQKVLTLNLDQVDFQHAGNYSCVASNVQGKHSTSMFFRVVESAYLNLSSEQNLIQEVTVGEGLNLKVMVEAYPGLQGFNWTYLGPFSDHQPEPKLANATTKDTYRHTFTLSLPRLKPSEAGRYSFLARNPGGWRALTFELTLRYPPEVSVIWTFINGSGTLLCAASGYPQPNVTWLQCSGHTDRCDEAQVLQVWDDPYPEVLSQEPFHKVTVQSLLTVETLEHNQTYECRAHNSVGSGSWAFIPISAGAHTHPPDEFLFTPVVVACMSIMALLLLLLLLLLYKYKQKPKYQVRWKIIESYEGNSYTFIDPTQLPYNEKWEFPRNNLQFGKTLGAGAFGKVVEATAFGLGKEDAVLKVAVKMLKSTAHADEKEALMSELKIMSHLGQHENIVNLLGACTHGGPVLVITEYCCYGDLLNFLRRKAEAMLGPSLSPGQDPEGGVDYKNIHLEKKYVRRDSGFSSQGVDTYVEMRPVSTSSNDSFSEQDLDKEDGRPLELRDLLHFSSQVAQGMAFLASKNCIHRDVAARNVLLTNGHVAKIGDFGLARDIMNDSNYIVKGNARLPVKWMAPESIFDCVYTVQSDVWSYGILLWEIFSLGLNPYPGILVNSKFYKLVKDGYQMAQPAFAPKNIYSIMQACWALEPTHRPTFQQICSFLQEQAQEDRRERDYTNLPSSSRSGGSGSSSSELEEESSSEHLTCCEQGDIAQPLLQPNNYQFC

SMILES | inhibition at 1 µM (RBL-2H3 [1]) | inhibition at 0.04 µM (RBL-2H3 [2]) | inhibition at 0.2 µM (RBL-2H3 [3]) | IC50 [4] | IC50 (RBL-2H3 [5]) | selectivity ratio [6]
COc1cc(NC(=O)c2ccc(C(F)(F)F)c(C#Cc3cc(-c4cnn(C)c4)cnc3N)c2)cc(OC)c1 | 15.7% | -3.24% | -2.84% |  |  | 
COc1ccc(NC(=O)c2ccc(C)c(C#Cc3cc(-c4cnn(C)c4)cnc3N)c2)cc1OC | 82.2% | 23.7% | 49.7% |  |  | 
Cc1ccc(C(=O)Nc2cccc(OC(F)(F)F)c2)cc1C#Cc1cc(-c2cnn(C)c2)cnc1N | 150% | 81.1% | 138% | 0.024 µM | 0.00715 µM | 12.9
Cc1ccc(C(=O)Nc2ccc(C(F)(F)F)cc2)cc1C#Cc1cc(-c2cnn(C)c2)cnc1N | 78.4% | 51.1% | 60.8% |  | 0.00608 µM | 2.3
Cc1ccc(C(=O)Nc2ccc3c(c2)OCCO3)cc1C#Cc1cc(-c2cnn(C)c2)cnc1N | 132% | 66.8% | 102% |  | 0.0673 µM | 
COc1cc(NC(=O)c2cccc(C#Cc3cc(-c4cnn(C)c4)cnc3N)c2OC)cc(OC)c1 | 22.8% | 0% | 6.7% |  |  | 
COc1cc(NC(=O)c2ccc(Cl)c(C#Cc3cc(-c4cnn(C)c4)cnc3N)c2)cc(OC)c1 | 52.5% | 0% | 9.97% |  |  | 
Cc1ccc(C(=O)Nc2ccccn2)cc1C#Cc1cc(-c2cnn(C)c2)cnc1N | 60.6% | 2.86% | 21.1% |  |  | 
COc1cc(NC(=O)c2ccc(C)c(C#Cc3cc(-c4cnn(C)c4)cnc3N)c2)cc(OC)c1 | 108% | 20.1% | 61.7% |  | 0.0258 µM | 15.4
Cc1ccc(C(=O)NC2CCCCC2)cc1C#Cc1cc(-c2cnn(C)c2)cnc1N | 63.7% | 0.18% |  |  |  | 
COc1ccccc1NC(=O)c1ccc(C)c(C#Cc2cc(-c3cnn(C)c3)cnc2N)c1 | 73.5% | 10.2% |  |  |  | 
COc1cc(NC(=O)c2ccc(C(C)C)c(C#Cc3cc(-c4cnn(C)c4)cnc3N)c2)cc(OC)c1 | -1.01% | -8.56% | -7.82% |  |  | 
CNC(=O)c1cnc(N)c(C#Cc2cc(C(=O)Nc3cc(OC)cc(OC)c3)ccc2C)c1 | 66.2% | 14.7% | 26.8% |  |  | 
FC(F)(F)c1ccc(CNc2ccc(Cc3c[nH]c4ncc(Cl)cc34)cn2)cn1 [PEXIDARTINIB] |  |  |  |  | > 1 µM | 
COc1cc(NC(=O)c2ccc(C)c(C#Cc3cc(C(N)=O)cnc3N)c2)cc(OC)c1 | 74.2% | 10.8% | 13.7% |  |  | 
COc1cc(NC(=O)c2cccc(C#Cc3cc(-c4cnn(C)c4)cnc3N)c2)cc(OC)c1 | 41% | 1.08% | 272% |  |  | 
COc1cc(NC(=O)c2ccc(C)c(C#Cc3cc(-c4cnn(C)c4)cnc3N)c2)cc(OC)c1OC | 131% | 82.6% | 103% | 0.008 µM | 0.00743 µM | 2.2
Cc1ccc(C(=O)Nc2ccccc2Cl)cc1C#Cc1cc(-c2cnn(C)c2)cnc1N | 25% | -4.58% | -5.24% |  |  | 

SMILES | inhibition at 1 µM (RBL-2H3 [1]) | inhibition at 0.04 µM (RBL-2H3 [2]) | inhibition at 0.2 µM (RBL-2H3 [3]) | IC50 [4] | IC50 (RBL-2H3 [5]) | selectivity ratio [6]
COc1ccc(NC(=O)c2ccc(C)c(C#Cc3cc(-c4cnn(C)c4)cnc3N)c2)cc1 | 101% | 41.5% | 66.9% |  | 0.0106 µM | 
COc1cc(NC(=O)c2ccc(Br)c(C#Cc3cc(-c4cnn(C)c4)cnc3N)c2)cc(OC)c1 | 79.2% | 22.6% | 36.6% |  |  | 
COc1cc(NC(=O)c2ccc(C)c(C#Cc3cccnc3N)c2)cc(OC)c1 | 55.9% | 4.26% | 3.01% |  |  | 
COc1cc(NC(=O)c2cccc(C#Cc3cc(-c4cnn(C)c4)cnc3N)c2C)cc(OC)c1 | 18.3% | 3.11% | 8.75% |  |  | 
Cc1ccc(C(=O)Nc2ccc(C(F)(F)F)c(C(F)(F)F)c2)cc1C#Cc1cc(-c2cnn(C)c2)cnc1N | 144% | 40.5% |  |  | 0.0588 µM | 
CCNc1ncc(-c2cnn(C)c2)cc1C#Cc1cc(C(=O)Nc2cc(OC)cc(OC)c2)ccc1C | 95.4% | 16.8% | 45.3% |  |  | 
Cc1ccc(C(=O)Nc2ccc(Cl)c(Cl)c2)cc1C#Cc1cc(-c2cnn(C)c2)cnc1N | 65% | 39.8% | 40.6% |  |  | 
Cc1ccc(C(=O)Nc2ccc(Cl)cc2)cc1C#Cc1cc(-c2cnn(C)c2)cnc1N | 89.5% | 52% | 68.6% |  | 0.0239 µM | 11.3
Cc1ccc(C(=O)Nc2ccc(CN3CCN(C)CC3)c(C(F)(F)F)c2)cc1C#Cc1cnc2cccnn12 [PONATINIB] |  |  |  |  | 0.148 µM | 
Cc1ccc(C(=O)Nc2ccccc2)cc1C#Cc1cc(-c2cnn(C)c2)cnc1N | 65.3% | 28.6% | 40.9% |  |  | 
COc1cc(NC(=O)c2ccc(OC)c(C#Cc3cc(-c4cnn(C)c4)cnc3N)c2)cc(OC)c1 | 34% | 11% | 18% |  |  | 
Cc1ccc(C(=O)Nc2cccc(C(F)(F)F)c2)cc1C#Cc1cc(-c2cnn(C)c2)cnc1N | 113% | 88.9% | 109% |  | 0.00275 µM | 2.5
Cc1ccc(C(=O)Nc2cccc(Cl)c2)cc1C#Cc1cc(-c2cnn(C)c2)cnc1N | 118% | 49% | 82.9% |  | 0.00654 µM | 3.8
COc1cccc(NC(=O)c2ccc(C)c(C#Cc3cc(-c4cnn(C)c4)cnc3N)c2)c1 | 125% |  | 80.5% |  | 0.0219 µM | 
COc1cc(NC(=O)c2cccc(C#Cc3cc(-c4cnn(C)c4)cnc3N)c2F)cc(OC)c1 | 33% | 34% | 24.8% |  |  | 
COc1cc(NC(=O)c2ccc(C)c(C#Cc3cc(Cl)cnc3N)c2)cc(OC)c1 | 50.9% | -1.58% | 37% |  |  | 
Cc1ccc(C(=O)Nc2ccc(Cl)c(C(F)(F)F)c2)cc1C#Cc1cc(-c2cnn(C)c2)cnc1N | 170% | 76.1% | 145% | 0.03 µM | 0.013 µM | 13.9
COc1cc(NC(=O)c2ccc(F)c(C#Cc3cc(-c4cnn(C)c4)cnc3N)c2)cc(OC)c1 | 30.9% | 2.34% | 0.83% |  |  | 
